# Reference: patent US20240165311A1, “STEM CELLS FOR USE IN ECMO TECHNOLOGY” (priority 2021, published 2024)
# Legend:
# [1] = tested on: human PBMCs activated with anti-CD3/anti-CD28; experiment: Cytokine analysis after 24 hours of activation (Luminex); format: cell-based; conditions: stimulated PBMCs, Prednisolone 125 nM
# Procedure: Cells were washed and the isolated PBMCs were pooled. […] Pooled PBMCs were split into 2 different tubes. […] Cells in tube two was left in PBS. […] See also FIG. 19. Supernatant (24 hours incubation) was analysed for cytokines using the 12-[…]-12 Luminex kit. All reagents, standard and samples were prepared at room temperature and according to manufacturer's instruction. Briefly, 50 μl of standard or sample was added to wells. Microparticles were added to samples and standard and samples were incubated for 2 hours at room temperature on a horizontal orbital shaker (800 rpm). Plate was washed 3× in washing buffer using a magnetic plate. Biotin-antibody was added and incubated dark for 1 hour at room temperature on a horizontal orbital shaker (800 rpm). Plate was washed 3× in washing buffer using a magnetic plate. Streptavidin-PE was added to each well and incubated dark at room temperature on a horizontal orbital shaker (800 rpm) for 30 minutes. Plate was washed 3× in washing buffer using a magnetic plate. Microparticles were resuspended in 100 μl washing buffer, incubated for 2 minutes on a horizontal orbital shaker (800 rpm). Samples were analysed on a Bio-Rad Luminex analyzer.
# [2] = tested on: human PBMCs activated with anti-CD3/anti-CD28; experiment: PBMC:MSC co-culture, cell composition after 24 hours of activation (FACS); conditions: Prednisolone 125 nM
# Procedure: (§1) Freshly isolated human PBMCs, pooled from three donors, were activated with anti-CD3/anti-CD28 at 10 μg/ml and 5 μg/ml respectively in presence of MSCs ex vivo for 24 or 72 hours. Following activation, cells were analysed for effects on cellular composition after 24 hours and for effects on cellular composition and cell proliferation using CFSE after 72 hours. In addition, supernatants collected after 24 hours of activation were analysed for cytokine levels using Luminex.
# (§2) Peripheral Blood Mononuclear Cells (PBMCs) were isolated from leucocyte concentrate from three different donors (acquired from Blodcentralen, Lunds Universitetssjukhus, Lund, Sweden) through gradient centrifugation at 400×g for 40 minutes using Ficoll. Red blood cells (RBCs) were lysed using BD Pharmlyse buffer 10× diluted in milliQ water for 3 minutes at room temperature (RT). Cells were washed and the isolated PBMCs were pooled. Cell concentration was determined using a Scepter cell counter (Millipore Merck, MA. USA). Cells were diluted to 1×10^7 cells/ml in PBS. Pooled PBMCs were split into 2 different tubes. Cells in tube 1 was stained with CFSE at 5 μM for 5 minutes (dark, RT). CFSE stained cells were washed with an equal volume of FBS to stop the reaction and washed again with PBS. Cells in tube two was left in PBS.
# (§3) MSCs (donor 1, donor 2, donor 3, and AD-MSC control cells) were provided in 8 different tubes, two for each cell type (in different medias (M3 and M4). All cells (PBMCs and MSCs) were diluted in the two different cell culture media (M3 and M4) to a final concentration of 2*10^6 cells/ml. Media was supplemented with anti-CD28 at 5 μg/ml. Cells were added to anti-CD3 (1 μg/well, 100 μl/well) coated U bottom cell culture plates according to the layout below, 200 μl/well in different PBMC:MSC ratios (1:10, 1:5, 1:2.5, 1:0 and 0:1) with a total amount of cells at 4*10^5 cells/well.
# (§4) Included in the assay were also controls (stimulated and unstimulated PBMCs) and two reference drugs, e.g. cyclosporine (CsA) and Prednisolone (Pred). When plating controls, cells were spun down and diluted in M3 or M4 at 4*10^6 cells/ml, with a total amount of cells at 4*10^5 cells/well. 100 μl PBMCs were added per well. CsA was added at a final concentration of 10 μg/ml and Prednisolone was added at a final concentration of 125 nM (700 μl/well). Medium was added to unstimulated control wells (700 μl/well). Cells were incubated for 24 or 72 hours at 37° C., 5% CO2. See also FIG. 19.
# Following 24 hours of incubation, cells in FACS/Luminex plates were stained with antibodies detecting CD73, CD4, CD8, CD80, CD206, CD163 and PD-1 in staining buffer (PBS supplemented with 1% BSA). Briefly, cells were transferred to V bottom plates and centrifuged at 360×g for 2 min. Supernatant was transferred to a storage plate and put in −20° C. until analysis using Luminex. Cells were washed in PBS, centrifuged at 360×g for 2 min at 4° C. Supernatant was flicked off and antibodies against surface markers were added. Cells were incubated at +4° C. for 20 minutes (dark). After incubation, cells were washed 1× in PBS, centrifuged at 360×g for 2 min at 4° C. Cells were resuspended in PBS and acquired using the Attune Nxt flow cytometer. Compensation was performed using beads—AbC Total Compensation capture beads and negative beads. Since compensation was done using beads, FSC and SSC were changed before analysing samples and adjusted to cells. Lasers were not changed after compensation. 150 μl was analysed from each sample.
# [3] = tested on: human PBMCs activated with anti-CD3/anti-CD28; experiment: PBMC:MSC co-culture, proliferation and cell composition after 72 hours of activation (FACS after CFSE labeling); conditions: MSCs in co-culture, Prednisolone 125 nM
# Procedure: as §1, §2, §3, §4
# After 72 hours of incubation, CFSE stained cells were stained with CD4, CD8, CD80, CD206 and CD163 in staining buffer. Briefly, cells were transferred to V bottom plates, centrifuged at 360×g for 2 min. Cells were washed in PBS, centrifuged at 360×g for 2 min at 4° C. Supernatant was flicked off and surface markers were added. Cells were incubated at +4° C. for 20 minutes. After incubation, cells were washed 1× in PBS, centrifuged at 360×g for 2 min at 4° C. Cells were resuspended in PBS and acquired using the Attune Nxt flow cytometer. Compensation was performed using beads—AbC Total Compensation capture beads and negative beads for surface markers. For CFSE compensation, newly CFSE stained cells were used. Since compensation was done using both beads and cells, FSC and SSC were changed and adjusted to beads or cells. […]
# Graphs were performed using Prism 8 for Mac OS X (GraphPad Software, San Diego, CA, USA). […] The inhibitory effect of MSCs on PBMC proliferation was calculated according to the two formulas below: […]
smiles,measurement,setting,value
C[C@]12C=CC(=O)C=C1CC[C@@H]1[C@@H]2[C@@H](O)C[C@@]2(C)[C@H]1CC[C@]2(O)C(=O)CO [Prednisolone],IL-6 levels in supernatant,[1]; CsA 10 μg/ml,inhibits
same,"the other analysed cytokines, levels in supernatant","[1]; CsA 10 μg/ml, 12-plex Luminex",No inhibitory effect
same,TNF-α levels in supernatant,"[1]; MSCs at all ratios, CsA 10 μg/ml",inhibits
same,IL12/IL23p40 levels in supernatant,[1]; MSCs at all ratios,inhibits
same,HGF levels in supernatant,"[1]; MSCs dose-dependent, CsA 10 μg/ml",inhibits
same,M2 macrophage expression,[2]; CsA 10 μg/ml,no effect
same,expression level of M1 macrophages,[2]; CsA 10 μg/ml,no effect
same,macrophage cell composition,[2],did not have an effect
same,T cell activation,"[2]; reference drug treated PBMCs, CsA 10 μg/ml",only slightly inhibits
same,% T helper cells,[2]; reference drug treated PBMCs,higher levels
same,T helper cells (% ),"[3]; 72 hours of incubation, CsA 10 μg/ml",no effect
same,M1 proliferation (CFSE),"[3]; 72 hours, CsA 10 μg/ml",No effect
same,M2 expression levels,"[3]; 72 hours, CsA 10 μg/ml",no effect
same,M2 proliferation (CFSE),"[3]; 72 hours, CsA 10 μg/ml",No effect
same,M1 expression levels,[3]; 72 hours,no effect
